Experimental data reported in ChEMBL document CHEMBL4420081, “Novel benzylamino substituted quinazolines and derivatives as sos1 inhibitors” (2018).
Activity calls are given as the source filed them. The rule behind the calls is not given here.

How the values were obtained:
NCI-H1792 [1] = assay: Growth inhibition of human NCI-H1792 cells grown under 3D anchorage-independent soft-agar conditions at 333 nM incubated for 14 days by alamar blue dye based assay relative to control; format: functional; conditions: NCI-H1792, 336 h, read-out: GI
NCI-H1792 [2] = assay: Growth inhibition of human NCI-H1792 cells grown under 3D anchorage-independent soft-agar conditions at 12.3 nM incubated for 14 days by alamar blue dye based assay relative to control; format: functional; conditions: NCI-H1792, 336 h, read-out: GI
NCI-H358 [3] = assay: Growth inhibition of human NCI-H358 cells grown under 3D anchorage-independent soft-agar conditions at 1000 nM incubated for 14 days by alamar blue dye based assay relative to control; format: functional; conditions: NCI-H358, 336 h, read-out: GI
NCI-H358 [4] = assay: Growth inhibition of human NCI-H358 cells grown under 3D anchorage-independent soft-agar conditions at 333 nM incubated for 14 days by alamar blue dye based assay relative to control; format: functional; conditions: NCI-H358, 336 h, read-out: GI
NCI-H1792 [5] = assay: Growth inhibition of human NCI-H1792 cells grown under 3D anchorage-independent soft-agar conditions at 37 nM incubated for 14 days by alamar blue dye based assay relative to control; format: functional; conditions: NCI-H1792, 336 h, read-out: GI
NCI-H358 [6] = assay: Growth inhibition of human NCI-H358 cells grown under 3D anchorage-independent soft-agar conditions at 37 nM incubated for 14 days by alamar blue dye based assay relative to control; format: functional; conditions: NCI-H358, 336 h, read-out: GI
NCI-H358 [7] = assay: Growth inhibition of human NCI-H358 cells grown under 3D anchorage-independent soft-agar conditions at 12.3 nM incubated for 14 days by alamar blue dye based assay relative to control; format: functional; conditions: NCI-H358, 336 h, read-out: GI
NCI-H358 [8] = assay: Growth inhibition of human NCI-H358 cells grown under 3D anchorage-independent soft-agar conditions at 111 nM incubated for 14 days by alamar blue dye based assay relative to control; format: functional; conditions: NCI-H358, 336 h, read-out: GI
NCI-H1792 [9] = assay: Growth inhibition of human NCI-H1792 cells grown under 3D anchorage-independent soft-agar conditions at 1000 nM incubated for 14 days by alamar blue dye based assay relative to control; format: functional; conditions: NCI-H1792, 336 h, read-out: GI
NCI-H1792 [10] = assay: Growth inhibition of human NCI-H1792 cells grown under 3D anchorage-independent soft-agar conditions at 111 nM incubated for 14 days by alamar blue dye based assay relative to control; format: functional; conditions: NCI-H1792, 336 h, read-out: GI
NCI-H2122 [11] = assay: Growth inhibition of human NCI-H2122 cells grown under 3D anchorage-independent soft-agar conditions at 123 nM incubated for 14 days by alamar blue dye based assay relative to control; format: functional; conditions: NCI-H2122, 336 h, read-out: GI
NCI-H2122 [12] = assay: Growth inhibition of human NCI-H2122 cells grown under 3D anchorage-independent soft-agar conditions at 164 nM incubated for 14 days by alamar blue dye based assay relative to control; format: functional; conditions: NCI-H2122, 336 h, read-out: GI
NCI-H2122 [13] = assay: Growth inhibition of human NCI-H2122 cells grown under 3D anchorage-independent soft-agar conditions at 370 nM incubated for 14 days by alamar blue dye based assay relative to control; format: functional; conditions: NCI-H2122, 336 h, read-out: GI
NCI-H2122 [14] = assay: Growth inhibition of human NCI-H2122 cells grown under 3D anchorage-independent soft-agar conditions at 1110 nM incubated for 14 days by alamar blue dye based assay relative to control; format: functional; conditions: NCI-H2122, 336 h, read-out: GI
NCI-H2122 [15] = assay: Growth inhibition of human NCI-H2122 cells grown under 3D anchorage-independent soft-agar conditions at 3330 nM incubated for 14 days by alamar blue dye based assay relative to control; format: functional; conditions: NCI-H2122, 336 h, read-out: GI
NCI-H358 [16] = assay: Induction of apoptosis in human NCI-H358 cells grown under 3D anchorage-independent soft-agar conditions at grown under 3D anchorage-independent soft-agar conditions assessed as induction of PARP cleavage at 1 uM in presence of 125 nM of afatinib incubated for 24 hrs by mesoscale assay; format: functional, cell-based
MIA PaCa-2 [17] = conditions: Homo sapiens, 50 mg/kg
Description: Antitumor activity against human MIAPaCa2 cells grown under 3D anchorage-independent soft-agar conditions at xenografted in BomTacNMRI-Foxn1 nu mouse assessed as inhibition of tumor regression at 50 mg/kg, po BID relative to control

A549 [18] = assay: Induction of apoptosis in human A549 cells grown under 3D anchorage-independent soft-agar conditions at grown under 3D anchorage-independent soft-agar conditions assessed as induction of PARP cleavage at 1 uM in presence of 10 nM of paclitaxel incubated for 24 to 48 hrs by mesoscale assay; format: functional, cell-based
NCI-H358 [19] = assay: Induction of apoptosis in human NCI-H358 cells grown under 3D anchorage-independent soft-agar conditions at grown under 3D anchorage-independent soft-agar conditions assessed as induction of PARP cleavage at 1 uM incubated for 24 to 72 hrs by mesoscale assay; format: functional, cell-based
SW900 [20] = assay: Growth inhibition of human SW900 cells grown under 3D anchorage-independent soft-agar conditions at 123 nM incubated for 14 days by alamar blue dye based assay relative to control; format: functional; conditions: SW900, 336 h, read-out: GI
SW900 [21] = assay: Growth inhibition of human SW900 cells grown under 3D anchorage-independent soft-agar conditions at 164 nM incubated for 14 days by alamar blue dye based assay relative to control; format: functional; conditions: SW900, 336 h, read-out: GI
NCI-H1792 [22] = assay: Growth inhibition of human NCI-H1792 cells grown under 3D anchorage-independent soft-agar conditions at 3330 nM incubated for 14 days by alamar blue dye based assay relative to control; format: functional; conditions: NCI-H1792, 336 h, read-out: GI
NCI-H1792 [23] = assay: Growth inhibition of human NCI-H1792 cells grown under 3D anchorage-independent soft-agar conditions at 164 nM incubated for 14 days by alamar blue dye based assay relative to control; format: functional; conditions: NCI-H1792, 336 h, read-out: GI
NCI-H1792 [24] = assay: Growth inhibition of human NCI-H1792 cells grown under 3D anchorage-independent soft-agar conditions at 1110 nM incubated for 14 days by alamar blue dye based assay relative to control; format: functional; conditions: NCI-H1792, 336 h, read-out: GI
SW900 [25] = assay: Growth inhibition of human SW900 cells grown under 3D anchorage-independent soft-agar conditions at 370 nM incubated for 14 days by alamar blue dye based assay relative to control; format: functional; conditions: SW900, 336 h, read-out: GI
NCI-H1792 [26] = assay: Growth inhibition of human NCI-H1792 cells grown under 3D anchorage-independent soft-agar conditions at 123 nM incubated for 14 days by alamar blue dye based assay relative to control; format: functional; conditions: NCI-H1792, 336 h, read-out: GI
NCI-H1792 [27] = assay: Growth inhibition of human NCI-H1792 cells grown under 3D anchorage-independent soft-agar conditions at 370 nM incubated for 14 days by alamar blue dye based assay relative to control; format: functional; conditions: NCI-H1792, 336 h, read-out: GI
SW900 [28] = assay: Growth inhibition of human SW900 cells grown under 3D anchorage-independent soft-agar conditions at 1110 nM incubated for 14 days by alamar blue dye based assay relative to control; format: functional; conditions: SW900, 336 h, read-out: GI
SW900 [29] = assay: Growth inhibition of human SW900 cells grown under 3D anchorage-independent soft-agar conditions at 3330 nM incubated for 14 days by alamar blue dye based assay relative to control; format: functional; conditions: SW900, 336 h, read-out: GI
A549 [30] = assay: Growth inhibition of human A549 cells grown under 3D anchorage-independent soft-agar conditions at 100 nM incubated for 14 days by alamar blue dye based assay relative to control; format: functional; conditions: A549, 336 h, read-out: GI
A549 [31] = assay: Growth inhibition of human A549 cells grown under 3D anchorage-independent soft-agar conditions at 11.1 nM incubated for 14 days by alamar blue dye based assay relative to control; format: functional; conditions: A549, 336 h, read-out: GI
MIA PaCa-2 [32] = assay: Antitumor activity against human MIAPaCa2 cells grown under 3D anchorage-independent soft-agar conditions at xenografted in BomTacNMRI-Foxn1 nu mouse assessed as inhibition of tumor regression at 10 mg/kg, iv dosed in q7d regime relative to control; format: functional, organism-based
NCI-H1792 [33] = assay: Growth inhibition of human NCI-H1792 cells grown under 3D anchorage-independent soft-agar conditions at 33.3 nM incubated for 14 days by alamar blue dye based assay relative to control; format: functional; conditions: NCI-H1792, 336 h, read-out: GI
A549 [34] = assay: Growth inhibition of human A549 cells grown under 3D anchorage-independent soft-agar conditions at 3.7 nM incubated for 14 days by alamar blue dye based assay relative to control; format: functional; conditions: A549, 336 h, read-out: GI
NCI-H1792 [35] = assay: Growth inhibition of human NCI-H1792 cells grown under 3D anchorage-independent soft-agar conditions at 100 nM incubated for 14 days by alamar blue dye based assay relative to control; format: functional; conditions: NCI-H1792, 336 h, read-out: GI
A549 [36] = assay: Growth inhibition of human A549 cells grown under 3D anchorage-independent soft-agar conditions at 33.3 nM incubated for 14 days by alamar blue dye based assay relative to control; format: functional; conditions: A549, 336 h, read-out: GI
NCI-H1792 [37] = assay: Growth inhibition of human NCI-H1792 cells grown under 3D anchorage-independent soft-agar conditions at 1.23 nM incubated for 14 days by alamar blue dye based assay relative to control; format: functional; conditions: NCI-H1792, 336 h, read-out: GI
NCI-H1792 [38] = assay: Growth inhibition of human NCI-H1792 cells grown under 3D anchorage-independent soft-agar conditions at 3.7 nM incubated for 14 days by alamar blue dye based assay relative to control; format: functional; conditions: NCI-H1792, 336 h, read-out: GI
A549 [39] = assay: Growth inhibition of human A549 cells grown under 3D anchorage-independent soft-agar conditions at 1.23 nM incubated for 14 days by alamar blue dye based assay relative to control; format: functional; conditions: A549, 336 h, read-out: GI
NCI-H1792 [40] = assay: Growth inhibition of human NCI-H1792 cells grown under 3D anchorage-independent soft-agar conditions at 11.1 nM incubated for 14 days by alamar blue dye based assay relative to control; format: functional; conditions: NCI-H1792, 336 h, read-out: GI

For `C=CC(=O)N1CCN(c2ncnc3c(F)c(-c4cc(O)cc5ccccc45)c(Cl)cc23)CC1`, the inhibition of growth at 0.333 µM (NCI-H1792 [1]) was 46%, the inhibition of growth at 0.0123 µM (NCI-H1792 [2]) was 5% and the inhibition of growth at 1 µM (NCI-H358 [3]) was 180%. The inhibition of growth at 0.333 µM (NCI-H358 [4]) was 139%, the inhibition of growth at 0.037 µM (NCI-H1792 [5]) was 29% and the inhibition of growth at 0.037 µM (NCI-H358 [6]) was 47%. The inhibition of growth at 0.0123 µM (NCI-H358 [7]) was 17%, the inhibition of growth at 0.111 µM (NCI-H358 [8]) was 87% and the inhibition of growth at 1 µM (NCI-H1792 [9]) was 81%. For the same compound, the inhibition of growth at 0.111 µM (NCI-H1792 [10]) was 42%.
For `CCN1CCN(Cc2ccc(Nc3ncc(F)c(-c4cc(F)c5nc(C)n(C(C)C)c5c4)n3)nc2)CC1` [ABEMACICLIB], the inhibition of growth at 0.123 µM (NCI-H2122 [11]) was 10%, the inhibition of growth at 0.164 µM (NCI-H2122 [12]) was 103% and the inhibition of growth at 0.37 µM (NCI-H2122 [13]) was 73%. For the same compound, the inhibition of growth at 1.11 µM (NCI-H2122 [14]) was 91% and the inhibition of growth at 3.33 µM (NCI-H2122 [15]) was 81%.
`COc1cc2nc(C)nc(N[C@H](C)c3cc(N)cc(C(F)(F)F)c3)c2cc1O[C@H]1CCOC1` was tested, and the Activity (NCI-H358 [16]) was “Active”, the inhibition (MIA PaCa-2 [17]) was “inactive” and the Activity (A549 [18]) was “Active”. For the same compound, the Activity (NCI-H358 [19]) was “inactive”.
With `COC(=O)c1ccc2c(c1)NC(=O)/C2=C(\Nc1ccc(N(C)C(=O)CN2CCN(C)CC2)cc1)c1ccccc1` [NINTEDANIB] the inhibition of growth at 0.123 µM (SW900 [20]) was -39%, the inhibition of growth at 0.164 µM (SW900 [21]) was 199% and the inhibition of growth at 3.33 µM (NCI-H1792 [22]) was 86%. The inhibition of growth at 0.164 µM (NCI-H1792 [23]) was 186%, the inhibition of growth at 1.11 µM (NCI-H1792 [24]) was 26% and the inhibition of growth at 0.37 µM (SW900 [25]) was -37%. The inhibition of growth at 0.123 µM (NCI-H1792 [26]) was 1%, the inhibition of growth at 0.37 µM (NCI-H1792 [27]) was 7% and the inhibition of growth at 1.11 µM (SW900 [28]) was -18%. It also gave an inhibition of growth at 3.33 µM (SW900 [29]) of 19%.
In the case of `CC(=O)O[C@H]1C(=O)[C@@]2(C)[C@H]([C@H](OC(=O)c3ccccc3)[C@]3(O)C[C@H](OC(=O)[C@H](O)[C@@H](NC(=O)c4ccccc4)c4ccccc4)C(C)=C1C3(C)C)[C@]1(OC(C)=O)CO[C@@H]1C[C@@H]2O` [PACLITAXEL], the inhibition of growth at 0.1 µM (A549 [30]) is reported as 114%, the inhibition of growth at 0.0111 µM (A549 [31]) is reported as 86% and the inhibition (MIA PaCa-2 [32]) is reported as “inactive”. The inhibition of growth at 0.0333 µM (NCI-H1792 [33]) was 96%, the inhibition of growth at 0.0037 µM (A549 [34]) was 54% and the inhibition of growth at 0.1 µM (NCI-H1792 [35]) was 183%. The inhibition of growth at 0.0333 µM (A549 [36]) was 97%, the inhibition of growth at 0.00123 µM (NCI-H1792 [37]) was 7% and the inhibition of growth at 0.0037 µM (NCI-H1792 [38]) was 19%. For the same compound, the inhibition of growth at 0.00123 µM (A549 [39]) was 12% and the inhibition of growth at 0.0111 µM (NCI-H1792 [40]) was 66%.
